logP and chromatographic logP data for 69 compounds are collected here from US20100081679A1, “DIAMINOPYRIMIDINES AS FUNGICIDES” (Bayer CropScience AG, priority 2007, published 2010).

The data set in a line: logP determination via retention times, calibrated with unbranched alkan-2-ones. The format is physicochemical.
Where [1] appears, read: HPLC reversed-phase C 18, EEC Directive 79/831 Annex V.A8, method *: 40° C., 0.1% aqueous formic acid and acetonitrile, linear gradient 10% to 95% acetonitrile.
Where [2] appears, read: HPLC on reversed-phase C 18, EEC Directive 79/831 Annex V.A8, method *: 40° C., 0.1% aqueous formic acid and acetonitrile, linear gradient 10% to 95% acetonitrile.
[3] abbreviates: HPLC on reversed-phase C18 column (EEC Directive 79/831 Annex V.A8), method *: 40° C., 0.1% aqueous formic acid and acetonitrile, linear gradient 10% to 95% acetonitrile.
[4] abbreviates: HPLC on reversed-phase C18, method *: 40° C., 0.1% aqueous formic acid and acetonitrile, linear gradient 10% to 95% acetonitrile.
Where [5] appears, read: method *: HPLC, reversed-phase C 18, 40° C., mobile phase 0.1% aqueous formic acid and acetonitrile, linear gradient from 10% to 95% acetonitrile.
Where [6] appears, read: method **: HPLC reversed-phase C 18, 43° C., 0.1% aqueous phosphoric acid and acetonitrile, linear gradient 10% to 95% acetonitrile.
[7] abbreviates: method *: HPLC reversed-phase C 18, temperature 40° C., mobile phase 0.1% aqueous formic acid and acetonitrile, linear gradient 10% to 95% acetonitrile.
Setting [8] is: method *: HPLC reversed-phase C18, 40° C., 0.1% aqueous formic acid and acetonitrile, linear gradient 10% to 95% acetonitrile.
[9] abbreviates: HPLC on reversed-phase C18, method *: 40° C., mobile phase 0.1% aqueous formic acid and acetonitrile, linear gradient 10% to 95% acetonitrile.
Setting [10] is: method **: HPLC, reversed-phase C 18, 43° C., mobile phase 0.1% aqueous phosphoric acid and acetonitrile, linear gradient from 10% to 95% acetonitrile.

Where a name gives a salt, the structure may show the parent alone. Read-outs that look alike come from different tables or passages of the source. Marks after values point to notes of the source that are not given here.

For the compound `O=C1COCCN1c1cccc(Nc2ncc(C(F)(F)F)c(NC3CC3)n2)c1` [compound 790], the logP under setting [1] is 1.88*. Regarding `FC(F)C(F)(F)Oc1cccc(Nc2ncc(Cl)c(NCC3CC3)n2)c1` [compound 527], the logP under setting [2] is given as 2.95*. With `O=C1CCCN1c1cccc(Nc2ncc(C(F)(F)F)c(NC3CC3)n2)c1` [compound 255], under setting [3], the logP is listed as 2.23*. With `CC(=O)c1cc(Nc2ncc(Cl)c(NC3CC3)n2)ccc1O` [Example 101], under setting [4], the logP is on record as 1.65*. As to `CCOC(=O)Nc1ccc(Nc2ncc(Br)c(NC3CC3)n2)cc1O` [compound 728], under setting [4], the logP was 1.53*. With `COC(=O)c1cc(Nc2ncc(Cl)c(NC3CC3)n2)ccc1O` [compound 993], under setting [5], the logP is listed as 1.81*. Regarding `Oc1ccc(Nc2ncc(Cl)c(NC3CC3)n2)cc1F` [compound 105], under setting [4], the logP was 1.25*. Take `CC(C)Oc1ccc(Nc2ncc(Cl)c(NCC3CC3)n2)cc1` [Example 55, 5-Chloro-N^4-(cyclopropylmethyl)-N^2-(4-isopropoxyphenyl)pyrimidine-2,4-diamine hydrochloride]: the chromatographic logP was determined as 2.11 (pH 2.3, read-out: logP (pH2.3)); 2.11 (reversed-phase C18 HPLC column, method **: HPLC reversed-phase C 18, 43° C., 0.1% aqueous phosphoric acid and acetonitrile, linear gradient 10% to 95% acetonitrile, read-out: logP). As for `Cc1cccc(Nc2ncc(Cl)c(NC3CC3)n2)c1` [compound 731], the logP under setting [4] is 1.93*. In the case of `NS(=O)(=O)c1cccc(Nc2ncc(Cl)c(NCC3CC3)n2)c1` [Example 16], the logP under setting [6] was 1.51**. In the case of `CS(=O)(=O)Cc1cccc(Nc2ncc(Cl)c(NCC3CC3)n2)c1` [compound 566], the logP under setting [7] is listed as 1.38*.

As to `CSc1cccc(Nc2ncc(C(F)(F)F)c(NC3CC3)n2)c1` [compound 266], the logP is listed as 3.49** (HPLC on reversed-phase C18 column (EEC Directive 79/831 Annex V.A8), method **: 43° C., 0.1% aqueous phosphoric acid and acetonitrile, linear gradient 10% to 95% acetonitrile); 3.29*; under setting [3]. With `CCC(=O)c1ccc(Nc2ncc(Cl)c(NCC3CC3)n2)cc1` [compound 677], the logP under setting [4] was 2.55*.

`CC(=O)c1ccc(Nc2ncc(F)c(NC3CC3)n2)cc1` [compound 590]: under setting [7], the logP is on record as 1.53*.

On to `CSc1ccc(Nc2ncc(Cl)c(NCC3CC3)n2)cc1Cl` [compound 626], for which the logP under setting [7] is reported as 3.15*. Consider `Oc1ccc(Nc2ncc(Br)c(NC3CC3)n2)cc1` [compound 114], for which the logP under setting [4] was 1.17*.

For `CCC(=O)c1cc(Nc2ncc(Cl)c(NCC3CC3)n2)ccc1O` [compound 541], under setting [2], the logP was 2.13*.

Consider `CN(C)S(=O)(=O)c1cccc(Nc2ncc(Br)c(NCC3CC3)n2)c1` [compound 192], for which the logP under setting [3] is reported as 2.48*. As for `Clc1cnc(Nc2ccc3c(c2)CCC3)nc1NC1CC1` [compound 1000], under setting [5], the logP is 2.11*.

With `O=C1COCCN1c1ccc(Nc2ncc(Cl)c(NC3CC3)n2)cc1` [compound 495], under setting [2], the logP is on record as 1.17*. In the case of `O=[N+]([O-])c1cccc(Nc2ncc(Cl)c(NC3CC3)n2)c1` [compound 788], under setting [1], the logP was 2.63*. On to `Clc1cnc(Nc2ccc3c(c2)OCO3)nc1NCC1CC1` [compound 695], for which, under setting [4], the logP was 1.75*. On to `CC(C)(C)C(=O)Nc1ccc(Nc2ncc(Cl)c(NC3CC3)n2)cc1` [Example 72], for which, under setting [8], the logP is 1.81*. For `CCOC(=O)Nc1cccc(Nc2ncc(F)c(NC3CC3)n2)c1` [compound 596], the logP under setting [7] is given as 1.53*. Still for that read-out and setting: to `CSc1ccc(Nc2ncc(F)c(NC3CC3)n2)cc1Cl` [compound 579] belongs 2.13*. Consider `CN(C)C(=O)Nc1ccc(Nc2ncc(Cl)c(NCC3CC3)n2)cc1` [compound 548], for which the logP under setting [2] is listed as 1.49*. With `CC(=O)Nc1ccc(Nc2ncc(Cl)c(NC3CC3)n2)cc1O` [compound 822], the logP under setting [1] was 1*. As to `O=C(N(c1ccc(Nc2ncc(Br)c(NCC3CC3)n2)cc1)C1CC1)C(F)(F)F` [compound 465], the logP under setting [2] was 2.74*. As to `COCCN(C)C(=O)c1cccc(Nc2ncc(Cl)c(NC3CC3)n2)c1` [compound 1064], under setting [5], the logP is reported as 1.46*.

As to `O=C1COCCN1c1cccc(Nc2ncc(Cl)c(NCC3CC3)n2)c1` [compound 786], the logP under setting [1] was 1.31*.

For `FC(F)(F)Oc1ccc(Nc2ncc(Cl)c(NC3CC3)n2)cc1Cl` [compound 296], the logP under setting [9] is reported as 3.9*.

As for `Cl.Fc1cnc(Nc2ccccc2)nc1NC1CC1` [compound 41], the logP under setting [6] is reported as 1.45**. On to `CSc1ccc(Nc2ncc(F)c(NC3CC3)n2)cc1` [compound 587], for which, under setting [7], the logP is listed as 1.68*. Take `COc1ccc(Nc2ncc(Cl)c(NC3CC3)n2)cc1` [compound 284]: the logP under setting [9] was 1.47*. On to `COc1cc(Nc2ncc(Br)c(NC3CC3)n2)cc(OC)c1OC` [compound 761], for which the logP under setting [4] is recorded as 1.71*. For the compound `COc1ccc(CN(c2nc(Nc3cccc(N4CCCC4=O)c3)ncc2Cl)C2CC2)cc1` [compound 1045], the logP under setting [10] was 3.37**.

As to `CCOC(=O)c1cccc(Nc2ncc(Br)c(NC3CC3)n2)c1` [compound 750], the logP under setting [4] is 2.4*. The same measure, in the same setting: to `CCOC(=O)Cc1ccc(Nc2ncc(Br)c(NC3CC3)n2)cc1` [compound 758] belongs 2.06*.

Take `CC(=O)N1CCc2ccc(Nc3ncc(Cl)c(NCC4CC4)n3)cc21` [compound 521]: the logP under setting [2] is given as 1.66*. Same read-out and setting: then `COc1cc(Nc2ncc(Br)c(NC3CC3)n2)ccc1Cl` [compound 532], with 2.70*; and `Oc1ccc(Nc2ncc(Cl)c(NCC3CC3)n2)cc1F` [compound 554], with 1.49*; and `COC(=O)Cc1cccc(Nc2ncc(Cl)c(NCC3CC3)n2)c1` [compound 504], with 1.92*. As for `CC(C)(C)NC(=O)c1cccc(Nc2ncc(Br)c(NCC3CC3)n2)c1` [compound 461], the logP under setting [8] was 2.16*. In the case of `FC(F)c1cnc(Nc2ccccc2)nc1NCC1CC1` [compound 773], under setting [4], the logP is 1.68*. As to `COC(=O)Nc1cccc(Nc2ncc(Br)c(NC3CC3)n2)c1` [compound 309], under setting [9], the logP is given as 1.61*. Regarding `C=CCNC(=O)c1ccc(Nc2ncc(Br)c(NCC3CC3)n2)cc1` [compound 425], the logP under setting [8] is reported as 1.9*. `COc1cc(Nc2ncc(Cl)c(NC3CC3)n2)ccc1F` [compound 259]: the logP under setting [3] was 1.9*. For `COc1ccc(Nc2ncc(Br)c(NCC3CC3)n2)cc1OC` [compound 409], the logP under setting [8] is reported as 1.68*. Turning to `CC(C)(C)NC(=O)c1ccc(Nc2ncc(C(F)(F)F)c(NCC3CC3)n2)cc1` [compound 207], the logP under setting [3] is given as 3.07*. With `CC1(C)CC1Nc1nc(Nc2cccc(N3CCOC3=O)c2)ncc1Cl` (stereo not drawn) [compound 1035], the logP under setting [10] is recorded as 1.93** and the logP under setting [5] is 1.93*;.

`Clc1cnc(Nc2cccc(Cn3ccnc3)c2)nc1NC1CC1` [compound 1046]: the logP under setting [10] was 0.83**. Consider `Clc1ccc(Oc2ccccc2)c(Nc2ncc(Cl)c(NC3CC3)n2)c1` [compound 873], for which the logP under setting [4] is reported as 4.87*. With `CCCCc1ccccc1Nc1ncc(Cl)c(NC2CC2)n1` [compound 911], the logP under setting [4] was 2.3*. Turning to `COC(c1cccc(Nc2ncc(Cl)c(NC3CC3)n2)c1)C(F)(F)F` (stereo not drawn) [compound 270], under setting [3], the logP is on record as 2.69*. On to `Clc1cccc(Nc2ncc(Cl)c(NCC3CC3)n2)c1` [compound 9], for which the logP under setting [6] is listed as 2.7**. In the case of `OC(c1cccc(Nc2ncc(C(F)(F)F)c(NC3CC3)n2)c1)C(F)(F)F` (stereo not drawn) [compound 666], the logP under setting [4] was 2.69*. For `Clc1cnc(Nc2ccccc2)nc1NC1(COc2ccccc2)CC1` [compound 801], the logP under setting [1] is 2.88*.

`COC(=O)N(C)c1ccc(Nc2ncc(Cl)c(NC3CC3)n2)cc1` [compound 339]: under setting [9], the logP is reported as 1.63*.

With `COc1cc(Nc2ncc(C(F)(F)F)c(NCC3CC3)n2)cc(OC)c1OC` [compound 217], the logP under setting [3] is reported as 2.57*.

As for `CSc1cccc(Nc2ncc(Br)c(NC3CC3)n2)c1` [compound 121], under setting [4], the logP is 2.44*. `CCCS(=O)(=O)c1cccc(Nc2ncc(C(F)(F)F)c(NCC3CC3)n2)c1` [compound 1068]: the logP under setting [5] is on record as 3.25*. For `CN(C)Cc1cccc(Nc2ncc(Cl)c(NC3CC3)n2)c1` [compound 718], the logP under setting [4] is 0.79*. The same measure, in the same setting: to `CCCCC(=O)Oc1ccc(Nc2ncc(Cl)c(NC3CC3)n2)cc1` [compound 106] belongs 3.68*; to `CC(C)(C)NC(=O)Cc1cccc(Nc2ncc(Br)c(NC3CC3)n2)c1` [compound 698], 1.94*. In the case of `CC(C)(C)C(=O)Nc1cccc(Nc2ncc(C(F)(F)F)c(NC3CC3)n2)c1` [compound 650], under setting [7], the logP is 2.6*.

Turning to `CC(=O)c1cccc(Nc2ncc(C#N)c(NC3CC3)n2)c1` [compound 610], the logP under setting [7] was 2.23*.

On to `CC(=O)Nc1cc(Nc2ncc(Br)c(NC3CC3)n2)ccc1C` [compound 113], for which the logP under setting [4] is reported as 1.35*. On to `CCSC(C)c1cccc(Nc2ncc(Cl)c(NC3CC3)n2)c1` (stereo not drawn) [compound 810], for which the logP under setting [1] is recorded as 2.82*. With `N#Cc1cccc(Nc2ncc(C(F)(F)F)c(NC3CC3)n2)c1` [compound 638], under setting [7], the logP is listed as 2.95*.
